Measurements from a melting point compilation (Tetko et al.; mined from patent text by program, amines drawn as free bases though some values may be those of a salt).

Compound | melting point
Cc1ccccc1NS(=O)(=O)c1cc([N+](=O)[O-])ccc1C | 171 to 173 °C
O=C1c2ccccc2C(=O)N1OCC1COCOC1 | 98 to 106 °C
Clc1ccc2c(-n3cncn3)ccnc2c1 | 169 to 170 °C
CC(C)C1c2ccc(F)cc2CCC1(O)CCO (stereo not drawn) | 78 to 80 °C
COC(=O)C(=Cc1ccc(OCc2ccccc2)cc1)C(=O)OC | 134 to 135 °C
Cn1cc(S(=O)(=O)Cl)c(=O)c2ccc(F)cc21 | 194 to 196 °C
NS(=O)(=O)c1ccc(CCN2CCN(c3ccncc3)CC2)cc1 | 203 to 204 °C
O=C(CC(CC1CCCCC1)C(=O)O)c1ccco1 (stereo not drawn) | 91 to 94 °C
COC(=O)CS(=O)(=O)CCCCCCn1nc(-c2ccccc2)c(-c2ccccc2)c1-c1ccccc1 | 92.5 to 94.5 °C
Cc1ccc(S(=O)(=O)NC(=O)OCCc2ccc(-n3c(C(C)(C)C)nc4c(C)nc(C)cc43)cc2)cc1 | 226 °C
CC(=O)c1cc2c(s1)S(=O)(=O)CCc1cc(=O)n(-c3ccc(Cl)cc3)nc1-2 | 272 to 273 °C
CC1=C(S(C)(=O)=O)C(c2ccccc2[N+](=O)[O-])C(C(=O)OC2CCCC2)=C(N=CN(C)C)N1 (stereo not drawn) | 175 °C
Cc1nc(-c2ccccc2C(F)(F)F)c(-c2ccccc2C(F)(F)F)o1 | 100 to 102 °C
CCCCCCCNC(=O)Nc1ccc(N(C)C)cc1C(=O)NC(C)(C)C1CCN(C(c2ccccc2)c2ccccc2)CC1 | 190 °C
Cc1nn(CC(F)COCc2ccccc2)c(-c2ccc(F)cc2)c1-c1ccc2c(c1)NC(=O)CO2 (stereo not drawn) | 138 to 140 °C
COc1ccc(S(=O)(=O)N2CCc3cccc(-c4ccc(C(=O)O)cc4)c32)cc1 | 130 to 132 °C
CCCn1c(SC)nc2cc(Br)sc2c1=O | 138 to 141 °C
Cc1c(-c2ccncc2)c(-c2ccc(F)cc2)n2c1SCC2 | 208 °C
CNC(=O)CC1CSC2=C(C(=O)OC(C)C)CCN21 (stereo not drawn) | 79 to 95 °C
CC#CCOc1nsc(-c2cccc(F)c2)n1 | 68.7 °C
CCc1cc(-c2ccc(-c3ccn(C)n3)cc2)ccc1OC | 167 to 170 °C
COc1ccc(C2CCN(C(=O)CC(N)=O)CC2)cc1OC1CCCC1 | 132 to 133 °C
Cc1ccc(-c2n[nH]c(=O)c(-c3ccccc3)c2-c2ccc(C)cc2)cc1 | 282 to 284 °C
COc1cc(C)c(C(=O)c2c(Cl)cccc2Cl)cc1[N+](=O)[O-] | 156 to 160 °C
CCCc1nc2c(N)nc3c(c2n1CC(C)(C)OCCS(C)(=O)=O)CCCC3 | 188 to 190 °C
COc1cc(C(=O)N2CCNC(C(=O)N(C)C)C2)cc(OC)c1OC (stereo not drawn) | 167 to 168 °C

Compound | melting point
CC1(C)C2CCC1(CCBr)CC2 | 68 to 71 °C
COC1CN(Cc2ccc(Nc3cc(-c4cccc(-n5ncc6cc(C(C)(C)C)cc(F)c6c5=O)c4CO)nn(C)c3=O)nc2)C1 | 140 to 142 °C
COc1cc2ncnc(N3CCN(C(=S)NCc4ccc(N(C)C)cc4)CC3)c2cc1OC | 177 to 178 °C
NC(=O)N(c1ccc(F)cc1)c1ccc(F)cc1 | 150 to 153 °C
Clc1nccnc1NCCOc1ccccc1 | 51 to 53 °C
CCOC(=O)CCc1c(C)nc(SCc2ccc(OC)cc2)n1C | 63 °C
Clc1ccc(Cl)c(-c2nnnn2Cc2cccnc2)c1 | 166 to 168 °C
N#CCCNC(=O)c1cccc(-c2ccc3occ(-c4ccc(Cl)cc4Cl)c3c2)c1 | 159 to 161 °C
Clc1cc(Cl)c(Oc2nc(Oc3c(Cl)cc(Cl)c(Cl)c3Cl)nc(Oc3c(Cl)cc(Cl)c(Cl)c3Cl)n2)c(Cl)c1Cl | 165 to 168 °C
CNc1ccc(Cl)cc1Cc1ccccc1 | 125 °C
O=CC(=O)c1ccccc1 | 120 to 122 °C
O=C(O)c1cc(N=C=S)cc(N=C=S)c1 | 125 to 127 °C
COC(=O)C(C(=O)OC)c1cccc2c1NC(=O)C2 | 161 to 162 °C
N#Cc1ccc(-c2ccc(OCCC(=O)NO)cc2)cc1 | 114 to 118 °C
O=C(O)C(O)c1ccc2ccccc2c1 (racemic) | 164 to 166 °C
COc1ccc(C(=O)Nc2ccccc2)cc1NC(=S)Nc1cccc(C)c1 | 168 to 171 °C
COc1ccc(-c2cc3nccnc3[nH]2)cc1 | 244 to 246 °C
CC(C)(C)OC(=O)N1CCC(NC(=O)c2ccc(-n3cc4ccccc4n3)cc2)CC1 | 202 to 204 °C
O=C(O)CCCCCNC(=O)c1cc2cc3c(cc2c2cc(OCc4ccccc4)ccc12)OCO3 | 198 to 200 °C
Cc1nc2n(c1C)N=C(c1ccc(N)cc1)c1cc3c(cc1C2)OCO3 | 226 to 227 °C
N#CNC(=N)CCCSc1nccc(NC(N)=NCC(F)(F)F)n1 | 224 °C
O=C(CCCCOc1ccccc1)C(F)(F)F | 50 to 51 °C
CCOCc1nc2c(N)nc3cc(O)ccc3c2n1CC(C)(C)NC(=O)NC(C)C | 163 to 168 °C
Cc1nc(C(O)(c2nc(C)c(C)s2)C(C)C)sc1C | 169 to 171 °C
CCOC(=O)c1c(Cl)nc2cc(OC)c(OC)cc2c1-c1ccc(OC)c(OC)c1 | 168 to 169 °C
COC(=O)c1ccc(OCCCCCOc2ccc(C#N)cc2)c(OC)c1 | 105 to 107 °C

Compound | melting point
N#Cc1nn(-c2c(Cl)cc(Cl)cc2Cl)cc1C1CC1(Cl)Cl (stereo not drawn) | 158 °C
O=C(O)Cc1ccc2c(c1)C(=O)C(=Cc1ccccc1)C2 | 202 to 204 °C
CN1C(=O)C2(COc3cc4c(cc32)OCCO4)c2c(NC(=O)C3CCC3)cccc21 (stereo not drawn) | 234 to 236 °C
O=c1[nH]nc(Br)c2ccccc12 | 268 to 271 °C
COC(=O)c1c(Cl)cc(Cl)cc1NC(=O)CSc1cccc(OC)c1 | 89 to 90 °C
COc1ccc(-n2cnc3ccc(-c4nnc(CCc5cccc(C(F)(F)F)c5)o4)cc32)cc1 | 159 to 160 °C
CC(C)OC(OC(C)C)(O[C@H](C)Cn1cnc2c(Cl)nc(N)nc21)P(=O)(O)O | 130 to 132 °C
Cc1cc(C(=O)NC/C=C\COc2ncccc2CN2CCCCC2)n[nH]1 | 93 to 95 °C
CCCCCCCCCCCCn1nnnc1C(C(=O)Nc1c(C(C)C)cccc1C(C)C)c1ccccc1 (stereo not drawn) | 113 to 115 °C
CC(C(=O)O)c1ccc(C(=O)c2ccc3ccccc3c2)cc1 (stereo not drawn) | 150 °C
COc1ccc(OC(=O)Nc2cc(C(=O)O)cc(C(=O)O)c2)cc1 | > 300 °C
Cc1ccc(C(=O)NCCC(=O)OCc2ccccc2)c(NC(=O)CCCCNC(=O)OC(C)(C)C)c1 | 112 to 113 °C
Nc1c(F)cc(I)cc1Cl | 85 to 87 °C
Cc1c(C(=O)Nc2nncs2)nnn1Cc1ccc(Cl)c(Cl)c1 | 216 °C
O=C(NCCO)/C(=C/c1ccc(C(F)(F)F)c(F)c1)NC(=O)c1ccc(OCCC(F)(F)F)cc1 | 185 to 186 °C
COc1ccc(C(=O)OC2CC3C(=O)NC4(C(=O)NS(=O)(=O)C5CC5)CC4C=CCOCCCC(NC(=O)OC(C)(C)C)C(=O)N3C2)cc1 (stereo not drawn) | 145 to 147 °C
FC(F)(F)c1ccc(-c2nnc(-c3cccc(C4OCCO4)c3)o2)cc1 | 107 to 108 °C
Cn1nc(C(=O)O)c(=O)n(-c2ccc(Cl)cc2)c1=O | 234 to 236 °C
CC(=O)Sc1cc(-c2ccc(C(F)(F)F)n(C)c2=O)c(F)cc1Cl | 91 to 92 °C
Cc1scc(CO)c1N | 70 to 71 °C
CCN(CC)c1ccc([PH](=O)c2ccc(N(CC)CC)cc2)cc1 | 129 °C
COc1ccc(Cn2nc(COC(C)(C)C(=O)O)c3ccccc32)cc1 | 169 to 171 °C
O=c1nc2ccccc2c2cc(CO)[nH]n12 | 225 to 230 °C
CCCCCCCCCCCCCCCCCC(=O)N1CC(O)C1 | 86 to 87.5 °C
O=C(c1cc2c(cc1Cl)OCO2)N1CCOCC1 | 155 °C
CCCCc1ccc2nc(Cl)c(S(N)(=O)=O)n2n1 | 166 °C

Compound | melting point
COc1cc(OC)c(-c2cccs2)cc1/C=C/C(=O)c1ccc(S(=O)(=O)Nc2ccon2)cc1 | 198 to 199 °C
Cc1noc(C(=O)NC(C)(C)C)c1C(N)=O | 155 to 158 °C
COc1cc2c(cc1OC)CCN(CCCN(C)C1CCc3cc(OC)c(OC)cc3C1)CC2 (stereo not drawn) | 92 to 93 °C
O=C(Nc1cccnn1)N1CCN(c2nccc(-c3c(F)cccc3F)n2)CC1 | 228 to 229 °C
Cc1ccc(N(C#N)C(=O)CCCCC(=O)N(C#N)c2ccc(C)cc2C)c(C)c1 | 120 to 122 °C
COC(=O)c1cc(N)c(F)c(-c2ccc(Cl)c(OC)c2F)n1 | 204 to 206 °C
Cc1nc(-c2ccccc2)c(CC(C)(C)C(=O)O)o1 | 129 to 130 °C
CC1(C)C=Cc2c(c3ccccc3[nH]c2=O)O1 | 174 to 177 °C
CNC(=O)c1c(NC(=O)CCl)c(OC)c(C(=O)NC)c([N+](=O)[O-])c1OC | 259 to 260 °C
Cc1csc2cc(C(=O)O)ccc12 | 230 to 232 °C
Cc1nc(NC(=O)c2ccc(F)cc2Cl)sc1C(=O)NCc1ccccc1 | 95 to 96 °C
NC(=O)Nc1ccc(C2=NNC(=O)Cc3cc4c(cc32)OCO4)cc1 | 238 to 241 °C
COC(=O)CCCC#Cc1cc(Cl)ccc1NS(=O)(=O)c1ccc2nc(NC(C)=O)sc2c1 | 138 to 140 °C
O=c1[nH]c2ncc(-c3ccc4[nH]cnc4c3)nc2n1CCC1CCOCC1 | 264 to 265 °C
O=C1Nc2ccccc2N(C(=O)CN2CCCCC2CN2CCCCC2)c2cscc21 (stereo not drawn) | 190 to 195 °C
CC(=O)NC1CC(n2cc(C=CBr)c(=O)[nH]c2=O)OC1CBr (stereo not drawn) | 178 to 180 °C
COc1ccc([C@]2(C)CNC(=O)O2)cc1O | 142 °C
CNC(=S)CC(=S)N(c1c(C)cccc1C)C(C)C(=O)OC (stereo not drawn) | 119 to 121 °C
COc1cc2c(cc1OC)C(C=O)c1ccccc1CC2 (stereo not drawn) | 130 to 132 °C
CCc1ccccc1C(Cc1ccccc1NC(=O)C(C)(C)C)NC (stereo not drawn) | 80 to 81.5 °C
CNc1nc(-c2ccccc2)c(-c2ccc(=O)n(C(C)C)n2)s1 | 234 to 236 °C
CCOC(=O)c1[nH]cc(-c2ccc(F)cc2)c1-c1ccccc1 | 145 to 146 °C
CN1CCc2cccc3c4c(n(c23)CC1)CCC4 | 128 to 130 °C
Nc1ncnc2ncn(CCO)c12 | 132 to 133 °C
C=Cc1ccc(C=O)cc1 | 65.9 °C
